Measurements taken from patent publication US9708314B2, “Heterocyclic amide compound” (NISSAN CHEMICAL INDUSTRIES, LTD., priority 2013, dated 2017).

Legend:
Assay type in all cases: in vivo
Leptochloa chinensis = assay: Test Example 3: herbicidal effect by application to foliage (Wagner pot, water depth 0.1-0.5 cm); details: Nineteenth Table; application to foliage; application herbicide amount 320 g/ha
Outline: (§1)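 Plants are raised 14 days from seed in flooded-surface Wagner pots at 25–30 °C, sprayed on stems and leaves with diluted emulsion at a predetermined rate, and rated three weeks on using a 0–5 herbicidal-ratio scale (5 ≥90%).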

[1] = tested on: Echinochloa crus-galli var. crus-galli; assay: as above; details: Nineteenth Table; application to foliage; application herbicide amount 320 g/ha
Outline: as §1

Cyperus difformis = assay: as above; details: Nineteenth Table; application to foliage; application herbicide amount 320 g/ha
Outline: as §1

[2] = tested on: directly sowed Oryza sativa; assay: Test Example 3: effect on crop by application to foliage (Wagner pot, water depth 0.1-0.5 cm); details: Nineteenth Table; application to foliage; application herbicide amount 320 g/ha
Outline: as §1

[3] = tested on: Echinochloa oryzacola Vasing.; assay: Test Example 2: herbicidal activity, application during weed generation in submerged conditions; details: Eighteenth Table; application herbicide amount 320 g/ha
Description: (§2) 5 Herbicidal ratio of 90% or more (almost completely withered) 4 Herbicidal ratio of 70% or more and less than 90% 3 Herbicidal ratio of 40% or more and less than 70% 2 Herbicidal ratio of 20% or more and less than 40% 1 Herbicidal ratio of 5% or more and less than 20% 0 Herbicidal ratio of 5% or less (almost no effect) [Test Example 2] Herbicidal Activity Test by Application During Weed Generation in Submerged Conditions After alluvial soil was placed into 1/10000 are of Wagner pot, water was poured and mixed to form a submerged condition having a water depth of 4 cm. Seeds of Echinochloa oryzacola Vasing., Scirpus juncoides, and Monochoria vaginalis were sowed in a mixed manner in the above pot and the pot was placed in the greenhouse of 25° C. to 30° C. to grow the plants. When Echinochloa oryzacola Vasing., Scirpus juncoides, and Monochoria vaginalis were grown to one leaf stage to two leaf stage, the emulsion agent containing the compound of the present invention prepared in accordance with Formulation Example 2 was diluted with water so as to be a predetermined herbicide amount and the diluted compound was applied to the surface of the water. Three weeks after the herbicide application, effects on each plant were investigated in accordance with the criteria of Test Example 1. A: Echinochloa oryzicola Vasing., B: Scirpus juncoides, C: Monochoria vaginalis, D: Leptochloa chinensis, E: Cyperus difformis, F: Digitaria ciliaris, G: Setaria viridis, H: Echinochloa crus-galli var. crus-galli, I: Avena fatua, J: Alopecurus myosuroides, K: Lolium multiflorum Lam., L: Apera spica-venti., M: Abutilon theophrasti, N: Amaranthus retroflexus, O: Chenopodium album, P: Stellaria media, Q: Galium spurium, R: Veronica persica, a: transplanted Oryza sativa, b: directly sowed Oryza sativa, c: Zea mays, d: Glycine max, e: Triticum aestivum, f: Beta vulgaris ssp. vulgaris, and g: Brassica campestris L. The application herbicide amount (g/ha) means an amount that a concentration is adjusted so that, when an application amount is converted into per hectare (1 ha), the herbicide is applied by the number of grams (g) of the described value.

Scirpus juncoides = assay: as above; details: Eighteenth Table; application herbicide amount 320 g/ha
Description: as §2

Monochoria vaginalis = assay: as above; details: Eighteenth Table; application herbicide amount 320 g/ha
Description: as §2

In the case of `C=CC[S+]([O-])c1nnc2c(C(=O)Nc3nnc(C)o3)ccc(C(F)(F)F)n12` (centres unmarked) [1-074], the “D (herbicidal effect grade)” value (Leptochloa chinensis) was 4 (Herbicidal ratio of 70% or more and less than 90%), the “H (herbicidal effect grade)” value [1] was 5 (Herbicidal ratio of 90% or more (almost completely withered)) and the “E (herbicidal effect grade)” value (Cyperus difformis) was 3 (Herbicidal ratio of 40% or more and less than 70%). The “b (effect on crop grade)” value [2] was 0 (Herbicidal ratio of 5% or less (almost no effect)), the “A (Echinochloa oryzicola Vasing.) herbicidal ratio grade” value [3] was 2 (Herbicidal ratio of 20% or more and less than 40%) and the “B (Scirpus juncoides) herbicidal ratio grade” value (Scirpus juncoides) was 0 (Herbicidal ratio of 5% or less (almost no effect)). For the same molecule, the “C (Monochoria vaginalis) herbicidal ratio grade” value (Monochoria vaginalis) was 0 (Herbicidal ratio of 5% or less (almost no effect)).
`Cc1nnc(NC(=O)c2ccc(C(F)(F)C(F)(F)F)n3c(C(C)C)nnc23)o1` [1-066] was tested, and the “D (herbicidal effect grade)” value (Leptochloa chinensis) was 4 (Herbicidal ratio of 70% or more and less than 90%), the “H (herbicidal effect grade)” value [1] was 1 (Herbicidal ratio of 5% or more and less than 20%) and the “E (herbicidal effect grade)” value (Cyperus difformis) was 3 (Herbicidal ratio of 40% or more and less than 70%). For the same molecule, the “b (effect on crop grade)” value [2] was 0 (Herbicidal ratio of 5% or less (almost no effect)), the “A (Echinochloa oryzicola Vasing.) herbicidal ratio grade” value [3] was 2 (Herbicidal ratio of 20% or more and less than 40%) and the “B (Scirpus juncoides) herbicidal ratio grade” value (Scirpus juncoides) was 3 (Herbicidal ratio of 40% or more and less than 70%). The “C (Monochoria vaginalis) herbicidal ratio grade” value (Monochoria vaginalis) was 2 (Herbicidal ratio of 20% or more and less than 40%).
`Cc1nnc(NC(=O)c2ccc(C(F)(F)F)n3c(-c4cncs4)nnc23)o1` [1-058] was tested, and the “D (herbicidal effect grade)” value (Leptochloa chinensis) was 5 (Herbicidal ratio of 90% or more (almost completely withered)), the “H (herbicidal effect grade)” value [1] was 5 (Herbicidal ratio of 90% or more (almost completely withered)) and the “E (herbicidal effect grade)” value (Cyperus difformis) was 5 (Herbicidal ratio of 90% or more (almost completely withered)). For the same molecule, the “b (effect on crop grade)” value [2] was 4 (Herbicidal ratio of 70% or more and less than 90%), the “A (Echinochloa oryzicola Vasing.) herbicidal ratio grade” value [3] was 4 (Herbicidal ratio of 70% or more and less than 90%) and the “B (Scirpus juncoides) herbicidal ratio grade” value (Scirpus juncoides) was 5 (Herbicidal ratio of 90% or more (almost completely withered)). For the same molecule, the “C (Monochoria vaginalis) herbicidal ratio grade” value (Monochoria vaginalis) was 4 (Herbicidal ratio of 70% or more and less than 90%).
`Cc1nnc(NC(=O)c2ccc(C(F)(F)F)n3c(-c4cc(Cl)cc(Cl)c4)nnc23)o1` [1-071] was tested, and the “D (herbicidal effect grade)” value (Leptochloa chinensis) was 3 (Herbicidal ratio of 40% or more and less than 70%), the “H (herbicidal effect grade)” value [1] was 0 (Herbicidal ratio of 5% or less (almost no effect)) and the “E (herbicidal effect grade)” value (Cyperus difformis) was 5 (Herbicidal ratio of 90% or more (almost completely withered)). The “b (effect on crop grade)” value [2] was 0 (Herbicidal ratio of 5% or less (almost no effect)), the “A (Echinochloa oryzicola Vasing.) herbicidal ratio grade” value [3] was 3 (Herbicidal ratio of 40% or more and less than 70%) and the “B (Scirpus juncoides) herbicidal ratio grade” value (Scirpus juncoides) was 5 (Herbicidal ratio of 90% or more (almost completely withered)). For the same molecule, the “C (Monochoria vaginalis) herbicidal ratio grade” value (Monochoria vaginalis) was 4 (Herbicidal ratio of 70% or more and less than 90%).
For `CC(C)c1nnc2c(C(=O)Nc3nnc(C(F)(F)F)o3)ccc(C(F)(F)F)n12` [1-100], the “D (herbicidal effect grade)” value (Leptochloa chinensis) was 5 (Herbicidal ratio of 90% or more (almost completely withered)), the “H (herbicidal effect grade)” value [1] was 5 (Herbicidal ratio of 90% or more (almost completely withered)) and the “E (herbicidal effect grade)” value (Cyperus difformis) was 4 (Herbicidal ratio of 70% or more and less than 90%). For the same molecule, the “b (effect on crop grade)” value [2] was 0 (Herbicidal ratio of 5% or less (almost no effect)), the “A (Echinochloa oryzicola Vasing.) herbicidal ratio grade” value [3] was 4 (Herbicidal ratio of 70% or more and less than 90%) and the “B (Scirpus juncoides) herbicidal ratio grade” value (Scirpus juncoides) was 3 (Herbicidal ratio of 40% or more and less than 70%). The “C (Monochoria vaginalis) herbicidal ratio grade” value (Monochoria vaginalis) was 4 (Herbicidal ratio of 70% or more and less than 90%).
